Where a chain is given by its changes, count along the chain named. Where two headings read alike, the source gives them in different places.
Key:
OR2M2 = assay: Activation of modified OR2M2 by sulfur compounds in presence of copper (luciferase); assay type: cell-based, human; details: modified C-terminus
Text: The most pungent odorant in human axillary sweat with an ODT of 1 picogram / L air is 3-methyl-3-sulfanyl-hexanol (also known as 3-methyl-3-mercapto-hexanol) (Natsch et al. identification of Odoriferous Sulfanylalkanols in Human Axilla Secretions and Their Formation through Cleavage of Cysteine Precursors by a C-S Lyase Isolated from Axilla bacteria. […] 2004; 1:1058-1072). So far, no OR has been described which can selectively detect this key odorant leading to undesired axilla odor in human subjects. By screening a library of receptor variants with the C-terminal sequence SEQ ID NO: 86 in presence of copper against a library of 52 sulfur compounds (see example 5), a hitherto orphan receptor, OR2M2, was identified, which is activated by 3-methyl-3-mercapto-hexanol and closely related chemicals, but not by other sulfur odorants (Figure 19).

OR7D4 = biological target: T1, OR7D4 (Homo sapiens, UniProt Q8NG98, D296E/E302K/G299D); assay: cell-based; assay type: cell-based; details: for EC50: read-out: Potency EC50
T1 construct: expressed in transfected cells; host or cells: HEK293T cells stably expressing human RTP1S (V227I) and RTP2 (L220R)
T1 sequence (Q8NG98 with tags, fused parts or gaps D296E/G299D/E302K limits assumed): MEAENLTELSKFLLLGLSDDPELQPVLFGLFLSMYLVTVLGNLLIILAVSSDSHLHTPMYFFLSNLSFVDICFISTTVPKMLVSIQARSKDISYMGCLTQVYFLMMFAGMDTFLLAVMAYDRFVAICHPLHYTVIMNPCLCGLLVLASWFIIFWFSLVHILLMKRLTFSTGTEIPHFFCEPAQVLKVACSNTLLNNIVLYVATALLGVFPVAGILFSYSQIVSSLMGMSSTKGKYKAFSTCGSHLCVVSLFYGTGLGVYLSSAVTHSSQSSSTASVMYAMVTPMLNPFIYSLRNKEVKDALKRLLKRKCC
Text: (§1) To create an expression plasmid, an OR coding sequence fused at the end of TM7 to the desired C-terminus sequence was synthesized by a DNA synthesis service provider (BioCat GmbH, Germany) and inserted into pcDNA3.1(+) (Invitrogen, MA, USA) downstream of the CMV promoter sequence (SEQ ID NO: 82) using BamHI and Notl restriction sites. All the synthetic OR nucleotide sequences described below in Examples 1-15 further contained at their N-terminus a nucleotide sequence encoding a signal peptide (mmLucy-FLAG-rho, SeQ ID NOs: 80, 81) and at the C-terminus the bgh terminator sequence (SEQ ID NO: 83). All the OR expression plasmids also contain a Kozak sequence (GCCACC) between the BamHI restriction site and the start codon of the signal peptide. These plasmids thus contain a constitutively expressed OR gene.
Similarly, in Figure 7 the dose-response of OR7D4 is shown when tested both with androstenone and the closely related molecule androstenol. […] Thus, a better understanding of the receptive space of OR7D4 is possible based on the improved sensitivity of the assay provided by the modified variant.

OR5B12 [1] = biological target: T2, OR5B12 (Homo sapiens, UniProt Q96R08); assay: cell-based; assay type: cell-based; details: for EC50: changed C-term SEQ ID NO: 86, read-out: Potency EC50; for Detection threshold; concentration for 2-fold induction: changed C-term. SEQ ID NO: 86
T2 construct: expressed in transfected cells; host or cells: HEK293T cells stably expressing human RTP1S (V227I) and RTP2 (L220R)
T2 sequence (Q96R08 with tags, fused parts or gaps): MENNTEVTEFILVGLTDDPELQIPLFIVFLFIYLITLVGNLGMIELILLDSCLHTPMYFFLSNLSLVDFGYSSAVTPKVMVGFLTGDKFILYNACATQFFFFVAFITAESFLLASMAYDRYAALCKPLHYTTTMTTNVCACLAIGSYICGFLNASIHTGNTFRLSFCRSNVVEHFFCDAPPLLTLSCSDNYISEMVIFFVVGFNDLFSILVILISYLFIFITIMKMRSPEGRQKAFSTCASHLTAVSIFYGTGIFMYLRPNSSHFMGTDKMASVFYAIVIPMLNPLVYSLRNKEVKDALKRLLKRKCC
Text: as §1

OR5B12 [2] = biological target: T3, OR5B12 (Homo sapiens, UniProt Q96R08); assay: cell-based; assay type: cell-based; details: wild-type; for EC50: read-out: Potency EC50
T3 construct: expressed in transfected cells; host or cells: HEK293T cells stably expressing human RTP1S (V227I) and RTP2 (L220R)
T3 sequence (Q96R08 1-314): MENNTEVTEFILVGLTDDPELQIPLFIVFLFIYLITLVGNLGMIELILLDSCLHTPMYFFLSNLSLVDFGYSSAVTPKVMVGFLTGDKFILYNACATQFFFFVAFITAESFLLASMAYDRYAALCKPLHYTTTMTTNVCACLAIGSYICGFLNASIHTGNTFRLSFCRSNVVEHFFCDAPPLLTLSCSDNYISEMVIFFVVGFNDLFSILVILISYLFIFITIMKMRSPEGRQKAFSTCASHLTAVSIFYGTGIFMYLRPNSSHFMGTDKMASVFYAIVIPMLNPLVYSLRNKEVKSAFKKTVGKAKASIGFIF
Text: as §1

OR5B12 [3] = assay: cell-based; assay type: cell-based, human
Text: as §1

OR10J5 [4] = biological target: T4, OR10J5 (Homo sapiens, UniProt Q8NHC4); assay: cell-based; assay type: cell-based
T4 construct: expressed in transfected cells; host or cells: HEK293T cells stably expressing human RTP1S (V227I) and RTP2 (L220R)
T4 sequence (Q8NHC4 1-309): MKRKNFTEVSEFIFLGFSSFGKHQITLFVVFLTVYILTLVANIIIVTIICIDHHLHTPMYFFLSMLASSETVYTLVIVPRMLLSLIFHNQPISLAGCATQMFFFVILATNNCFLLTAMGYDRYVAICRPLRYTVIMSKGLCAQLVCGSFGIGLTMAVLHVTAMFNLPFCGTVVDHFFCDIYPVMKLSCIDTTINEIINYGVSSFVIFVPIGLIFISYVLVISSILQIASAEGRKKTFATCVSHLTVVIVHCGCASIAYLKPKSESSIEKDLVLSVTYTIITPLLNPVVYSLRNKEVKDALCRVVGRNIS
Text: as §1

OR10J5 [5] = biological target: T5, OR10J5 (Homo sapiens, UniProt Q8NHC4); assay: cell-based; assay type: cell-based; remark: listed apart in the source
T5 construct: expressed in transfected cells; host or cells: HEK293T cells stably expressing human RTP1S (V227I) and RTP2 (L220R)
T5 sequence (Q8NHC4 with tags, fused parts or gaps): T4 sequence (Q8NHC4 1-309) with C301K, V303L, V304L, G305K, N307K, I308C, S309C
Text: as §1

OR10J5 [6] = assay: cell-based; assay type: cell-based, human
Text: as §1

OR8K3 [7] = biological target: T6, OR8K3 (Homo sapiens, UniProt Q8NH51); assay: cell-based; assay type: cell-based
T6 construct: expressed in transfected cells; host or cells: HEK293T cells stably expressing human RTP1S (V227I) and RTP2 (L220R)
T6 sequence (Q8NH51 1-312): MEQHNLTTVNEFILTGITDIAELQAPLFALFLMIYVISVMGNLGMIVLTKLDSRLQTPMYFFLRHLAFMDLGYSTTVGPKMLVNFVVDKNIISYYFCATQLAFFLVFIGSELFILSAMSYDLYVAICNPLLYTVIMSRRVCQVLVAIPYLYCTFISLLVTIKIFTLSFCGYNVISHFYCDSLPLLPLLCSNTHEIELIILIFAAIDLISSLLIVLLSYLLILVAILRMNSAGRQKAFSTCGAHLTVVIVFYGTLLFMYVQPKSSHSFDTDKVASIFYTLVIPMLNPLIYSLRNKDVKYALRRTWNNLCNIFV
Text: as §1
(§2) Thus, using the improved sensitivity of the assay provided by the modified variant, activation of OR8K3 by a broader set of mint-smelling molecules can be detected.
(§3) Knowing the importance of the C-terminal sequence for proper expression as observed in the previous examples, an obvious way to improve expression might be just to provide a hybrid receptor whereby the C-terminal domain in a non-functional or poorly functional receptor is replaced by the C-terminal domain of a functional receptor. […] Thus the C-terminal sequence of OR8K3 was replaced with the C-terminal sequence of the ambrettolide-receptor OR1N2 or the musk receptor OR5AN1. […] Thus the improvement achieved with the modified C-terminal sequences of this disclosure cannot be achieved by simply generating chimeric receptors combining a functional C-terminal domain of a functional receptor with a poorly expressed receptor.

OR8K3 [8] = biological target: T7, OR8K3 (Homo sapiens, UniProt Q8NH51, D295E/Y298D); assay: cell-based; assay type: cell-based
T7 construct: expressed in transfected cells; host or cells: HEK293T cells stably expressing human RTP1S (V227I) and RTP2 (L220R)
T7 sequence (Q8NH51 with tags, fused parts or gaps D295E/Y298D): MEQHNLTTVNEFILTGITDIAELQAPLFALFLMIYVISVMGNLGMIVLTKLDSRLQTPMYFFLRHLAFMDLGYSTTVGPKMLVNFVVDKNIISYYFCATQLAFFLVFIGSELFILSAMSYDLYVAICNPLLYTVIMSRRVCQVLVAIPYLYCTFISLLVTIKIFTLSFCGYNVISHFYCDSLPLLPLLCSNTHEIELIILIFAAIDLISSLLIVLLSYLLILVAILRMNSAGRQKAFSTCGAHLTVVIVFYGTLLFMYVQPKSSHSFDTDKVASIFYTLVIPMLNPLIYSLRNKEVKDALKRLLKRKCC
Text: as §1, §2, §3

OR8K3 [9] = assay: cell-based; assay type: cell-based, human
Text: as §1, §2, §3

[10] = wild-type, read-out: Potency EC50
[11] = changed C-term SEQ ID NO: 86, read-out: Potency EC50

**Q.** How did the “activation of OR2M2” value (OR2M2) turn out when `CC1=CCC(C(C)(C)S)CC1` (stereo not drawn) [1-p-Menthene-8-thiol] was run?
**A.** activated

**Q.** `CCCC(C)(S)CCO` (stereo not drawn) [3-methyl-3-sulfanyl-hexanol] was tested. Which “activation of OR2M2” value (OR2M2) did it give?
**A.** activated

**Q.** Which Comments on efficacy (OR7D4) does the source give for `C[C@]12CCC(=O)C[C@@H]1CC[C@@H]1[C@@H]2CC[C@]2(C)C=CC[C@@H]12` [Androstenone] here?
**A.** 3-fold lower maximal induction for wild-type

**Q.** And the Fold-improvement potency (OR7D4)?
**A.** 66

**Q.** What about the EC50 (OR7D4; changed C-term SEQ ID NO: 86) of the same compound?
**A.** 0.13 µM

**Q.** And the EC50 (OR7D4; wild-type)?
**A.** 8.44 µM

**Q.** For `CCCCCC1C(=O)CCC1CC(=O)OC` (stereo not drawn) [Hedione HC], which EC50 (OR5B12 [1]) is on record?
**A.** 18.3 µM

**Q.** And the “Detection threshold; concentration for 2-fold induction” value (OR5B12 [1])?
**A.** 8.8 µM

**Q.** And the “Detection threshold; concentration for 2-fold induction” value (OR5B12 [2])?
**A.** 96 µM

**Q.** And the EC50 (OR5B12 [2])?
**A.** 69 µM

**Q.** And the Comments on efficacy (OR5B12 [3])?
**A.** 4-fold lower maximal induction for wild-type

**Q.** What about the Fold-improvement potency (OR5B12 [3]) of the same compound?
**A.** 3.8

**Q.** And the Fold-improvement threshold (OR5B12 [3])?
**A.** 11

**Q.** For `CCCCCC1C(=O)CCC1CC(=O)OC` (stereo not drawn) [Hedione], which EC50 (OR5B12 [1]) is on record?
**A.** 58.3 µM

**Q.** And the “Detection threshold; concentration for 2-fold induction” value (OR5B12 [1])?
**A.** 29 µM

**Q.** What about the “Detection threshold; concentration for 2-fold induction” value (OR5B12 [2]) of the same compound?
**A.** n.i. >>( 250) µM

**Q.** And the EC50 (OR5B12 [2])?
**A.** > 250 µM

**Q.** And the Comments on efficacy (OR5B12 [3])?
**A.** Induction wild-type only 1.75-fold

**Q.** What about the Fold-improvement potency (OR5B12 [3]) of the same compound?
**A.** >5

**Q.** What about the Fold-improvement threshold (OR5B12 [3]) of the same compound?
**A.** >9

**Q.** Which “Detection threshold; concentration for 2-fold induction” value (OR10J5 [4]) does the source give for `C/C(=C\CCC=O)CCCC(C)(C)O` [Mahonial, (4E)-9-hydroxy-5,9-dimethyl-4-Decenal] here?
**A.** 7.42 µM

**Q.** And the EC50 (OR10J5 [4]; [10])?
**A.** 46 µM

**Q.** What about the “Detection threshold; concentration for 2-fold induction” value (OR10J5 [5]) of the same compound?
**A.** 0.65 µM

**Q.** And the EC50 (OR10J5 [5]; [11])?
**A.** 20 µM

**Q.** What about the Fold-improvement potency (OR10J5 [6]) of the same compound?
**A.** 2.3

**Q.** And the Fold-improvement threshold (OR10J5 [6])?
**A.** 11.5

**Q.** Which results are given for `CC1CCC(C(C)C)C(O)C1` (stereo not drawn) [Menthol]?
**A.** Detection threshold; concentration for 2-fold induction (OR8K3 [7]): 160 µM; EC50 (OR8K3 [7]; [10]): 236 µM; Detection threshold; concentration for 2-fold induction (OR8K3 [8]): 11 µM; EC50 (OR8K3 [8]; [11]): 115 µM; Comments on efficacy (OR8K3 [9]): 3-fold lower maximal induction for wild-type; Fold-improvement potency (OR8K3 [9]): 2; functional response (OR8K3 [9]; OR8K3 with C-terminal sequence of OR1N2 or OR5AN1): did not show any functional response

Source: patent publication EP4664463A1, “COMPUTER-IMPLEMENTED METHOD FOR OLFACTORY PROPERTY PREDICTION” (Givaudan SA, priority 2024, dated 2025)
